Measured values: patent US6706663B2, “Herbicidal 3-heterocyclic substituted benzisothiazole and benzisoxazole compounds” (Wyeth, priority 2000, dated 2004)

How the values were obtained:
[1] = tested on: SETVI (Setaria viridis); test: Postemergence herbicidal evaluation; format: in vivo, (L.) Beau; settings: postemergence
Summary of the method: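 Seedlings grown about two weeks were sprayed with compound in 50/50 acetone/water containing 0.5% TWEEN 20, at about 0.0040 to 1.000 kg/ha via nozzle at 40 psi. Plants were kept under greenhouse conditions and visually rated on a 0-9 scale versus control four to five weeks after treatment; replicate tests averaged.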

[2] = tested on: ORYSAT (Rice, Tebonnet); test: Postemergence herbicidal evaluation; format: in vivo, Oryza sativa, (L.) Tebonnet; settings: postemergence
Summary of the method: (§1)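 Visual 0–9 injury scores versus control plants, covering stand, vigour, malformation, size, chlorosis and general appearance, taken four to five weeks post-spray and averaged over replicate tests. Plants were sprayed at roughly two weeks old and held on greenhouse benches.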

[3] = tested on: TRZAWR (Wheat, Winter, cv Riband); test: Postemergence herbicidal evaluation; format: in vivo, Triticum aestivum; settings: postemergence
Summary of the method: as §1

[4] = tested on: ABUTH (Abutilon theophrasti); test: Preemergence herbicidal evaluation; format: in vivo, Medic.; settings: rated 4-5 weeks after treatment
[5] = tested on: ECHCG (Echinochloa crus-galli); test: Preemergence herbicidal evaluation; format: in vivo, (L.) Beau; settings: rated 4-5 weeks after treatment
Summary of the method: (§2)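 Rating 0–9, visual, vs control; 4–5 wk after spraying seeded cups with compound in aq. acetone; conventional greenhouse care.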

[6] = tested on: SETVI (Setaria viridis); test: Preemergence herbicidal evaluation; format: in vivo, (L.) Beau; settings: rated 4-5 weeks after treatment
Summary of the method: as §2

[7] = tested on: MOOVA (Monochoria vaginalis); test: Flooded paddy, preemergence weed control; format: in vivo, Presl.; settings: rated 3-4 weeks after treatment, 0-9 rating scale
Summary of the method: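 Ratings of 0-9 reflect visual comparison with a control for stand, vigor, deformity, size, chlorosis and overall look. Propagules were placed in shallow silt loam (top 0.5 cm) under a continuous 1.5–3 cm flood and grown in the greenhouse.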

[8] = tested on: ORYSAT (Rice, Tebonnet); test: Flooded paddy, post-transplant rice tolerance; format: in vivo, Oryza sativa, (L.) Tebonnet; settings: flooded paddy, post-transplant rice, rated 3-4 weeks after treatment, 0-9 rating scale
Summary of the method: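 Scores (0-9) reflect visual injury relative to untreated plants in flooded silt loam. Each pot held two transplanted ten-day-old seedlings under 1.5 to 3 cm standing water in the greenhouse.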

[9] = tested on: ECHORC (Echinochloa oryzoides); test: Flooded paddy, postemergence weed control; format: in vivo, Echinochloa oryzoides (Ard.) Fritsch.; settings: postemergence weeds, rated 3-4 weeks after treatment
Source text: (§3) Results of herbicide evaluation are expressed on a rating scale (0-9). The scale is based upon a visual observation of plant stand, vigor, malformation, size, chlorosis and overall plant appearance as compared with a control.
(§4) Plastic containers containing weeds which are 3 to 5 cm tall and rice seedlings at the 1.5 to 2.5 leaf stage are flooded with water. The water is maintained at 1.5 to 3 cm above the soil surface for the duration of the experiment. Test compounds are applied as aqueous/acetone mixtures 50/50 v/v directly into the flood water to provide the equivalent of about 0.0320 to 0.2500 kg/ha of active ingredient. The treated containers are placed on greenhouse benches and cared for in accordance with conventional greenhouse procedures. Three to four weeks after treatment, the test is terminated and each container is examined and herbicidal effect rated according to the rating system provided in Example 87. The compounds evaluated are identified in Example 87 and plant species used are identified in Example 89.

[10] = tested on: CYPSE (Cyperus serotinus); test: Flooded paddy, postemergence weed control; format: in vivo, Rottb.; settings: postemergence weeds, rated 3-4 weeks after treatment
Source text: as §3, §4

[11] = tested on: MOOVA (Monochoria vaginalis); test: Flooded paddy, postemergence weed control; format: in vivo, Presl.; settings: postemergence weeds, rated 3-4 weeks after treatment
Source text: as §3, §4

[12] = tested on: SAGPY (Sagittaria pygmaea); test: Flooded paddy, postemergence weed control; format: in vivo, L.; settings: postemergence weeds, rated 3-4 weeks after treatment
Source text: as §3, §4

[13] = tested on: ORYSAT (Rice, Tebonnet); test: Flooded paddy, post-transplant and postemergence rice tolerance; format: in vivo, Oryza sativa, (L.) Tebonnet; settings: post-transplant rice, rated 3-4 weeks after treatment
Source text: as §3, §4

[14] = preemergence, rate 0.0620 kg/ha
[15] = preemergence, rate 0.1250 kg/ha
[16] = preemergence, rate 0.2500 kg/ha

SMILES | SETVI herbicidal rating ([1]; rate 0.0320 kg/ha) | SETVI herbicidal rating ([1]; rate 0.0620 kg/ha) | ORYSAT herbicidal rating ([2]; rate 0.0320 kg/ha) | ORYSAT herbicidal rating ([2]; rate 0.0620 kg/ha) | TRZAWR herbicidal rating ([3]; rate 0.0320 kg/ha) | TRZAWR herbicidal rating ([3]; rate 0.0620 kg/ha) | Preemergence herbicidal rating ABUTH ([4]; Rate 0.0620 kg/ha) | Preemergence herbicidal rating ABUTH ([4]; Rate 0.1250 kg/ha) | Preemergence herbicidal rating ABUTH ([4]; Rate 0.2500 kg/ha) | Preemergence herbicidal rating ECHCG ([5]; Rate 0.0620 kg/ha) | Preemergence herbicidal rating ECHCG ([5]; Rate 0.1250 kg/ha) | Preemergence herbicidal rating ECHCG ([5]; Rate 0.2500 kg/ha) | Preemergence herbicidal rating SETVI ([6]; Rate 0.0620 kg/ha) | Preemergence herbicidal rating SETVI ([6]; Rate 0.1250 kg/ha) | Preemergence herbicidal rating SETVI ([6]; Rate 0.2500 kg/ha) | herbicidal rating, MOOVA ([7]; rate 0.0320 kg/ha) | herbicidal rating, MOOVA ([7]; rate 0.1250 kg/ha) | herbicidal rating, ORYSAT (rice tolerance) ([8]; rate 0.0080 kg/ha) | herbicidal rating, ORYSAT (rice tolerance) ([8]; rate 0.0320 kg/ha) | herbicidal rating, ORYSAT (rice tolerance) ([8]; rate 0.1250 kg/ha) | other results
Cn1c(C(F)(F)F)cc(=O)n(-c2ccc3snc(C4OC(C)(C)C(C)(C)O4)c3c2)c1=O [Compound 56, 1-methyl-3-[3-(4,4,5,5-tetramethyl-1,3-dioxolan-2-yl)-1,2-benzisothiazol-5-yl]-6-(trifluoromethyl)uracil] | 2.0 | 4.0 | 3.5 | 4.5 | 3.5 | 4.5 | 9.0 | 9.0 | 9.0 | 9.0 | 9.0 | 9.0 | 8.5 | 9.0 | 9.0 | 9.0 | 9.0 | 1.0 | 4.3 | 8.0 | herbicidal rating, MOOVA ([7]; rate 0.0080 kg/ha): 9.0; herbicide rating (0-9) ECHORC ([9]; 0.0320 kg/ha into flood water): 9.0; herbicide rating (0-9) ECHORC ([9]; 0.0620 kg/ha into flood water): 9.0; herbicide rating (0-9) ECHORC ([9]; 0.1250 kg/ha into flood water): 9.0; herbicide rating (0-9) CYPSE ([10]; 0.0620 kg/ha into flood water): 0.0; herbicide rating (0-9) CYPSE ([10]; 0.1250 kg/ha into flood water): 9.0; herbicide rating (0-9) MOOVA ([11]; 0.0320 kg/ha into flood water): 2.0; herbicide rating (0-9) MOOVA ([11]; 0.0620 kg/ha into flood water): 4.0; herbicide rating (0-9) MOOVA ([11]; 0.1250 kg/ha into flood water): 7.0; herbicide rating (0-9) SAGPY ([12]; 0.0320 kg/ha into flood water): 0.0; herbicide rating (0-9) SAGPY ([12]; 0.0620 kg/ha into flood water): 0.0; herbicide rating (0-9) SAGPY ([12]; 0.1250 kg/ha into flood water): 2.0; herbicide rating (0-9) ORYSAT (rice tolerance) ([13]; 0.0320 kg/ha into flood water): 7.0; herbicide rating (0-9) ORYSAT (rice tolerance) ([13]; 0.0620 kg/ha into flood water): 7.0; herbicide rating (0-9) ORYSAT (rice tolerance) ([13]; 0.1250 kg/ha into flood water): 9.0
CC1CC(C)(C)OC(c2nsc3ccc(-n4c(=O)cc(C(F)(F)F)n(C)c4=O)cc23)O1 (centres unmarked) [Compound 55, 1-methyl-6-(trifluoromethyl)-3-[3-(4,4,6-trimethyl-m-dioxan-2-yl)-1,2-benzisothiazol-5-yl]uracil] | 1.0 | 1.0 | 3.0 | 4.5 | 3.0 | 5.0 | 9.0 | 9.0 | 9.0 | 9.0 | 9.0 | 9.0 | 9.0 | 9.0 | 9.0 | 9.0 | 9.0 | 3.0 | 4.5 | 9.0 | 
Cn1c(C(F)(F)F)cc(=O)n(-c2ccc3snc(C4OCC(CCl)O4)c3c2)c1=O (centres unmarked) [Compound 72, 3-[3-[4-(chloromethyl)-1,3-dioxolan-2-yl]-1,2-benzisothiazol-5-yl]-1-methyl-6-(trifluoromethyl)uracil] | 8.0 | 8.0 | 4.0 | 4.5 | 3.5 | 4.5 | 9.0 | 9.0 | 9.0 | 9.0 | 9.0 | 9.0 | 9.0 | 9.0 | 9.0 | 9.0 | 9.0 | 0.0 | 7.0 | 8.0 | herbicidal rating, MOOVA ([7]; rate 0.0080 kg/ha): 0.0
Cn1c(C(F)(F)F)cc(=O)n(-c2ccc3snc(-c4ccoc4)c3c2)c1=O [Compound 83, 3-[3-(3-furyl)-1,2-benzisothiazol-5-yl]-1-methyl-6-(trifluoromethyl)uracil] | 3.0 | 4.0 | 1.5 | 3.0 | 2.0 | 3.0 |  |  |  |  |  |  |  |  |  | 9.0 | 9.0 | 0.0 | 2.0 | 2.0 | Preemergence herbicidal rating ABUTH [4, 14]: 2.0; Preemergence herbicidal rating ABUTH [4, 15]: 7.5; Preemergence herbicidal rating ABUTH [4, 16]: 9.0; Preemergence herbicidal rating ECHCG [5, 14]: 2.0; Preemergence herbicidal rating ECHCG [5, 15]: 6.5; Preemergence herbicidal rating ECHCG [5, 16]: 9.0; Preemergence herbicidal rating SETVI [6, 14]: 6.0; Preemergence herbicidal rating SETVI [6, 15]: 9.0; Preemergence herbicidal rating SETVI [6, 16]: 9.0; herbicidal rating, MOOVA ([7]; rate 0.0080 kg/ha): 0.0
C=C1COC(c2nsc3ccc(-n4c(=O)cc(C(F)(F)F)n(C)c4=O)cc23)OC1 [Compound 58, 2,4(1H,3H)-pyrimidinedione, 1-methyl-3-[3-(5-methylene-m-dioxan-2-yl)-1,2-benzisothiazol-5-yl]-6-(trifluoromethyl)-] | 1.0 | 6.0 | 3.5 | 5.0 | 4.0 | 4.5 | 9.0 | 9.0 | 9.0 | 9.0 | 9.0 | 9.0 | 8.0 | 9.0 | 9.0 | 9.0 | 9.0 |  | 4.0 | 7.0 | 
